These results are taken from patent US11345650B1, “Methods and systems for crystallizing and isolating individual cannabinoids” (MYKU Biosciences LLC, priority 2021, dated 2022).

SMILES strings stand for the structures.

The nature of this data set: Minimum concentration of CBD required for crystallization from solution. It counts as physicochemical. As to the method:
The minimum concentration of CBD required for selective crystallization from a solution containing a plurality of cannabinoids was evaluated.
The CBD-rich solution shown in Table A7 was diluted in MCT coconut oil to the aforementioned CBD concentrations. The samples were heated to 60° C. for about five minutes. Then, each solution was subjected to the following nucleation factors: agitation (intense stirring), cold shock (cooling solution to −20° C. and mixing), introduction of a CBD seed crystal, and exposure to a vacuum at a pressure of −25 inHg). Photographs of the crystallized cannabinoids were taken after 24 hours.
The experiment was also repeated using mixtures of cannabinoid CBD and THCa isolates in oleic acid.

Take `C=C(C)[C@@H]1CCC(C)=C[C@H]1c1c(O)cc(CCCCC)cc1O` [CBD, Cannabidiol]: under “CBD-rich solution with a plurality of cannabinoids diluted in MCT coconut oil, heated to 60° C., agitation, cold shock −20° C., seed crystal, vacuum −25 inHg, after 24 hours”, the “lowest tested concentration of CBD that exhibited crystallization” value stood at 19.6%. Also, for the setting “mixtures of CBD and THCa isolates in oleic acid (FIG. 16: 24% CBD, 1% THCA, 75% oleic acid)”, the “lowest tested concentration of CBD that crystallized” value was 24%.
